Laboratory results as given in US10544134B2, “4-substituted coumarin derivatives and preparation methods and uses thereof” (SI CHUAN UNIVERSITY, priority 2015, dated 2020).
Where two headings read alike, the source gives them in different places.

How the values were obtained:
Assay in all cases: Tumor cell proliferation inhibitory activity test in vitro (MTT)
[1] = test system: colon carcinoma cell HCT116; assay type: cell-based, human; details: read-out: IC50 of compounds for tumor cells, Activity, HCT116
Text: (§1) Human non-small cell lung cancer cell line NCI-H460, human small cell lung cancer cell line NCI-H446, human hepatocellular carcinoma cell strain HepG2, human colon carcinoma cell strain HCT116, human prostate cancer PC-3, human melanoma A375, colon carcinoma cell HCT-8, breast cancer cell MCF-7, ovarian cancer cell A2780s, drug-resistant ovarian cancer cell A2780/T, drug-resistant colon cancer cell HCT-8/T and doxorubicin-resistant breast cancer cell MCF-7/ADR are obtained from American Type Culture Collection (ATCC) and are cultured and preserved by the cell bank of State Key Laboratory of Biotherapy of Sichuan University. Above tumor cells are routinely cultured in DMEM culture medium containing 10% fetal bovine serum, 100 U·mL-1 penicillin and 100 mg·L−1 streptomycin, and in an incubator at 37° C. and with saturated humidity and 5% CO2 concentration.
(§2) Fill diluted cell suspension in the 96-well plate with 1000-10000 cells per well and incubate it in CO2 incubator overnight.
(§3) Replace with new medium containing various concentrations of compounds to be tested for the test group and replace with fresh medium with equal volume for the control group, each group is arranged with 5 parallel wells and incubated in an incubator at 37° C. and with 5% CO2 concentration.
(§4) Discard the supernatant after 72 hours, add 200 μL freshly prepared serum-free medium containing 0.2 mg/mL MTT into each well, continue to incubate at 37° C. for 1-4 hours, then stop incubation, carefully remove the culture supernatant in the wells and add 200 uL DMSO (dimethyl sulfoxide), oscillate with a miniature ultrasonic oscillator for 15-20 minutes to make the crystal fully dissolved and mixed. Determine OD values using a microplate reader at 570 nm with a reference wavelength of 450 nm.
(§5) Draw curves based on the growth inhibition rate for tumor cells of the same sample with different concentrations to get dose-response curve, so as to calculate IC50. Repeat each test for 3 times, measure IC50 (μM) or nanomolor concentration (nM) of compounds in different tumor cells.

[2] = test system: hepatocellular carcinoma cell HEPG2; assay type: cell-based, human; details: read-out: IC50 of compounds for tumor cells, Activity, HEPG2
Text: as §1, §2, §3, §4, §5

melanoma A375 = assay type: cell-based, human; details: read-out: IC50 of compounds for tumor cells, Activity, A375
Text: as §1, §2, §3, §4, §5

[3] = test system: non-small cell lung cancer cell line NCI-H460; assay type: cell-based, human; details: read-out: IC50 of compounds for tumor cells, Activity, H460
Text: as §1, §2, §3, §4, §5

prostate cancer PC-3 = assay type: cell-based, human; details: 72 hours, read-out: IC50 of compounds for tumor cells, Activity, PC-3
Text: as §1, §2, §3, §4, §5

breast cancer cell MCF-7 = assay type: cell-based; details: read-out: IC50 of compounds for tumor cells, Activity, MCF-7
Text: as §1, §2, §3, §4, §5

[4] = Homo sapiens, HCT-116, 72 hours
[5] = Homo sapiens, NCI-H460, 72 hours

Row | Compound | IC50 [1, 4] [µM] | IC50 ([2]; Homo sapiens, HepG2, 72 hours) [µM] | IC50 (melanoma A375; Homo sapiens, A-375, 72 hours) [µM] | IC50 [3, 5] [µM] | IC50 (prostate cancer PC-3; Homo sapiens) [µM] | IC50 (breast cancer cell MCF-7; Homo sapiens, MCF7, 72 hours) [µM] | IC50 ([1]; 72 hours) [µM] | IC50 ([2]; 72 hours) [µM] | IC50 (melanoma A375; 72 hours) [µM] | IC50 ([3]; 72 hours) [µM] | IC50 (prostate cancer PC-3) [µM] | IC50 (breast cancer cell MCF-7; 72 hours) [µM]
1 | COc1ccccc1-c1ccc(-c2cc(=O)oc3ccccc23)o1 [COUM-18, 4-(5-(2-methoxyphenyl)furan-2-yl)-coumarin] | > 5 | > 5 | > 5 | > 5 | > 5 | > 5 |  |  |  |  |  | 
2 | COc1ccc(N(C)c2cc(=O)oc3ccccc23)cc1OC(=O)CCCl [COUM-60, 4-(N-methyl-N-(4-methoxy-3-(2-chloroethylcarbonyloxy)-benzene)-amino) Coumarin] |  |  |  |  |  |  | 0.1 to 5 | 0.1 to 5 | 0.1 to 5 | 0.1 to 5 | 0.1 to 5 | 0.1 to 5
3 | CCOC(=O)COc1cc(N(C)c2cc(=O)oc3ccccc23)ccc1OC [COUM-45, 4-(N-methyl-N-(4-methoxy-3-(2-ethoxy-2-carbonylethoxy)-benzene)-amino) coumarin] | 0.01 to 0.1 | 0.01 to 0.1 | 0.01 to 0.1 | 0.01 to 0.1 | 0.01 to 0.1 | 0.01 to 0.1 |  |  |  |  |  | 
4 | 4-(N-methyl-N-(4-methoxy-3-(4-fluorobenzene) methanesulfonate-benzene)-amino) Coumarin [COUM-56] |  |  |  |  |  |  | 0.1 to 5 | 0.1 to 5 | 0.1 to 5 | 0.1 to 5 | 0.1 to 5 | 0.1 to 5
5 | COc1cccc(-c2ccc(-c3cc(=O)oc4ccccc34)s2)c1 [COUM-29, 4-(5-(3-methoxyphenyl)thiophene-2-yl)-coumarin] | > 5 | > 5 | > 5 | > 5 | > 5 | > 5 |  |  |  |  |  | 
6 | COc1ccc2c(c1)CN(c1cc(=O)oc3ccccc13)CCC2 [COUM-37, 4-(8-methoxy-1,3,4,5-tetrahydro-2H-benzoazepine-2-yl) Coumarin] | 0.1 to 5 | 0.1 to 5 | 0.1 to 5 | 0.1 to 5 | 0.1 to 5 | 0.1 to 5 |  |  |  |  |  | 
7 | COc1ccc2c(-c3ccc(-c4ccc5c(c4)OCO5)s3)cc(=O)oc2c1 [COUM-11, 4-(5-(3,4-(methylenedioxy)benzene)thiophene-2-yl)-7-methoxyl-coumarin] | > 5 | > 5 | > 5 | > 5 | > 5 | > 5 |  |  |  |  |  | 
8 | O=c1cc(-c2ccc(-c3cccc(Cl)c3)o2)c2ccccc2o1 [COUM-22, 4-(5-(3-chlorobenzene)furan-2-yl)-coumarin] | > 5 | > 5 | > 5 | > 5 | > 5 | > 5 |  |  |  |  |  | 
9 | CS(=O)(=O)c1ccc(-c2ccc(-c3cc(=O)oc4ccccc34)o2)cc1 [COUM-16, 4-(5-(4-methylsulfonylphenyl)furan-2-yl)-coumarin] | > 5 | > 5 | > 5 | > 5 | > 5 | > 5 |  |  |  |  |  | 
10 | COC(=O)CCCCCCCCCCOc1cc(N(C)c2cc(=O)oc3ccccc23)ccc1OC [COUM-94, 4-(N-methyl-N-(4-methoxy-3-(1-methyl ester-decane-oxy)phenyl)-amino) Coumarin] | > 5 | > 5 | > 5 | > 5 | > 5 | > 5 |  |  |  |  |  | 
11 | CCOC(=O)c1cccc(-c2ccc(-c3cc(=O)oc4cc(OC)ccc34)s2)c1 [COUM-13, 4-(5-(3-ethoxycarbonylbenzene)thiophene-2-yl)-7-methoxyl-coumarin] | > 5 | > 5 | > 5 | > 5 | > 5 | > 5 |  |  |  |  |  | 
12 | COc1ccc2c(-c3ccc(-c4ccc(Cl)cc4)o3)cc(=O)oc2c1 [COUM-28, 4-(5-(4-chlorobenzene)furan-2-yl)-7-methoxyl-coumarin] | > 5 | > 5 | > 5 | > 5 | > 5 | > 5 |  |  |  |  |  | 
13 | COc1ccc(N(C)c2cc(=O)oc3ccccc23)cc1NC(=O)C1CCCC1 [COUM-97, 4-(N-methyl-N-(4-methoxy-3-(cyclopentylcarbonylamino)phenyl)-amino) Coumarin] | 0.1 to 5 | 0.1 to 5 | 0.1 to 5 | 0.1 to 5 | 0.1 to 5 | 0.1 to 5 |  |  |  |  |  | 
14 | 4-(N-methyl-N-(4-methoxy-3-((4-ethylbenzene) methoxycarbonyl)-benzene)-amino) Coumarin [COUM-53] |  |  |  |  |  |  | 0.1 to 5 | 0.1 to 5 | 0.1 to 5 | 0.1 to 5 | 0.1 to 5 | 0.1 to 5
15 | Cc1ccc(-c2ccc(-c3cc(=O)oc4ccccc34)o2)cc1 [COUM-17, 4-(5-(4-methylphenyl)furan-2-yl)-coumarin] | > 5 | > 5 | > 5 | > 5 | > 5 | > 5 |  |  |  |  |  | 
16 | COc1ccc2c(c1)CN(c1cc(=O)oc3cc(OC)ccc13)CCC2 [COUM-39, 4-(8-methoxy-1,3,4,5-tetrahydro-2H-benzoazepine-2-yl)-7-methoxycoumarin] | 0.1 to 5 | 0.1 to 5 | 0.1 to 5 | 0.1 to 5 | 0.1 to 5 | 0.1 to 5 |  |  |  |  |  | 
17 | CCOC(=O)c1cccc(-c2ccc(-c3cc(=O)oc4cc(OC)ccc34)o2)c1 [COUM-27, 4-(5-(3-ethoxycarbonylbenzene)furan-2-yl)-7-methoxyl-coumarin] | > 5 | > 5 | > 5 | > 5 | > 5 | > 5 |  |  |  |  |  | 
18 | COc1ccc2c(-c3ccc(-c4ccc5c(c4)OCO5)o3)cc(=O)oc2c1 [COUM-25, 4-(5-(3,4-(methylenedioxy)benzene)furan-2-yl)-7-methoxyl-coumarin] | > 5 | > 5 | > 5 | > 5 | > 5 | > 5 |  |  |  |  |  | 
19 | O=c1cc(-c2ccc(-c3ccc(Cl)cc3)o2)c2ccccc2o1 [COUM-21, 4-(5-(4-chlorobenzene)furan-2-yl)-coumarin] | > 5 | > 5 | > 5 | > 5 | > 5 | > 5 |  |  |  |  |  | 
20 | 4-(N-methyl-N-(4-methoxy-3-(3-chlorophenyl-methoxycarbonyl)-benzene)-amino) Coumarin [COUM-62] |  |  |  |  |  |  | 0.1 to 5 | 0.1 to 5 | 0.1 to 5 | 0.1 to 5 | 0.1 to 5 | 0.1 to 5
